Laboratory results as given in US20190336490A1, “COMPOSITIONS AND METHODS FOR INCREASING REMYELINATION” (Frequency Therapeutics, Inc., priority 2018, published 2019).

Legend:
muscarinic M1 receptor = biological target: T1, muscarinic M1 receptor (Homo sapiens, UniProt P11229); conditions: cited from earlier work
T1 sequence (P11229 1-460): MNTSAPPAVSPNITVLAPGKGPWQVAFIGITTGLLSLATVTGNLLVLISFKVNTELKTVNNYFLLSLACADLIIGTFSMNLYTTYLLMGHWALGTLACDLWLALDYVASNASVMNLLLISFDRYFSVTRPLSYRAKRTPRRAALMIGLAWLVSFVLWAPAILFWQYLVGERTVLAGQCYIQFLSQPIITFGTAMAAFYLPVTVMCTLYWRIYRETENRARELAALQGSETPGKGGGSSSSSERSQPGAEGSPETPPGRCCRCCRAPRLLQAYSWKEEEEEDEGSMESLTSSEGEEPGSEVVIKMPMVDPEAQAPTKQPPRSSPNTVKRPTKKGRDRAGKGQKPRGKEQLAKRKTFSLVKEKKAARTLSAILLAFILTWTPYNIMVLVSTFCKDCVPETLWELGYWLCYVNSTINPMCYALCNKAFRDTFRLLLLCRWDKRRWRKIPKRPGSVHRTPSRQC

[1] = test system: OPC (oligodendrocyte precursor cell); test: OPC Cell Activity; format: cell-based
[2] = test system: Rat primary optic nerve oligodendrocyte progenitor cells (OPCs); test: OPC differentiation assay (MBP staining); format: cell-based; conditions: 6 days

Compound	In vitro M1 (Conc) (muscarinic M1 receptor)	OPC Cell Activity ([1]; Table 1, in words)	other results
OC(CCN1CCCCC1)(c1ccccc1)C1CC2C=CC1C2 (stereo not shown) [Biperiden]	0.85 nM		
CC(C)[N+]1(C)[C@@H]2CC[C@H]1C[C@@H](OC(=O)C(CO)c1ccccc1)C2 (stereo partly shown) [Ipratropium]	1.31 nM	Active	
CC(C1=C(CCN(C)C)Cc2ccccc21)c1ccccn1 (stereo not shown) [Dimetindene]	320 nM		
CN1CCCCC1CCN1c2ccccc2Sc2ccc([S+](C)[O-])cc21 (stereo not shown) [Mesoridazine]	10 nM		
CN1[C@@H]2CC[C@H]1C[C@@H](OC(c1ccccc1)c1ccccc1)C2 [Benztropine]			OPC Cell Activity ([1]; Table 1): 170 to 350 nM
CN1CCC(OC(c2ccccc2)c2ccccc2)CC1 [Diphenylpyraline]		Active	
OCCOCCN1CCN(C2=Nc3ccccc3Sc3ccccc32)CC1 [Quetiapine]		Active	
OC(CCN1CCCCC1)(c1ccccc1)C1CCCCC1 (stereo not shown) [Trihexyphenidyl]		Active	
CN1[C@@H]2C[C@@H](OC(=O)[C@H](CO)c3ccccc3)C[C@H]1[C@@H]1O[C@@H]12 [Scopolamine]			OPC Cell Activity ([1]; Table 1): 5100 nM
O=C1CCCN1c1ccc(Oc2ccc3c(c2)CCN(C2CCC2)CC3)nc1 [GSK-239512]			OPC Cell Activity ([1]; Table 2): 120 to 160 nM
C[N+]1(C)[C@@H]2C[C@@H](OC(=O)C(O)(c3cccs3)c3cccs3)C[C@H]1[C@@H]1O[C@@H]12 [Tiotropium bromide]	0.13 nM	Active	
CCN(CC)CC#CCOC(=O)C(O)(c1ccccc1)C1CCCCC1 (stereo not shown) [Oxybutynin]			OPC Cell Activity ([1]; Table 1): 670 nM
C[N+]1(C)[C@@H]2CC[C@H]1C[C@@H](OC(=O)C(CO)c1ccccc1)C2 (stereo partly shown) [Methylatropine]		Active	
CN(C)CCN(Cc1ccccc1)c1ccccn1 [Tripelennamine]	1,3000 nM	Active	
CCN1CCCC(OC(=O)C(c2ccccc2)c2ccccc2)C1 (stereo not shown) [Piperidolate]		Active	
Clc1ccc(Cn2c(CN3CCCC3)nc3ccccc32)cc1 [Clemizole]			OPC Cell Activity ([1]; Table 2, in words): Active
CCCCCCCCOc1ccccc1C(=O)Nc1ccc(C(=O)OCC[N+](C)(CC)CC)cc1 [Octylonium bromide]	2 nM	Active	
O=C(O[C@H]1C[N+]2(CCCOc3ccccc3)CCC1CC2)C(O)(c1cccs1)c1cccs1 [Aclidinium bromide]	0.10 nM		
CCN(CC)CC1CCCCN1CC(=O)N1c2ccccc2C(=O)Nc2cccnc21 (stereo not shown) [AF-DX 116]	417 nM		
CN1CCc2c(c3ccccc3n2Cc2ccccc2)C1 [Mebhydrolin]	180 nM		
Cc1ccc(O)c([C@H](CCN(C(C)C)C(C)C)c2ccccc2)c1 [Tolterodine]	190 nM		
CCCOC(C(=O)OC1CCN(C)CC1)(c1ccccc1)c1ccccc1 [Propiverine]	619 nM		OPC Cell Activity ([1]; Table 1): 420 nM
CN1CCCN(C(c2ccccc2)c2ccc(Cl)cc2)CC1 (stereo not shown) [Homochlorcyclizine]	22 nM		
CN1[C@@H]2CC[C@H]1C[C@@H](OC(=O)[C@H](CO)c1ccccc1)C2 [Hyoscyamine]		Active	
O=C(O[C@H]1CN2CCC1CC2)N1CCc2ccccc2[C@@H]1c1ccccc1 [Solifenacin]	25 nM	Active	
C[N+]1(C)CCCCC1COC(=O)C(O)(c1ccccc1)c1ccccc1 (stereo not shown) [Bevonium]		Active	

Compound	In vitro M1 (Conc) (muscarinic M1 receptor)	OPC Cell Activity ([1]; Table 1, in words)	other results
CCCNCC(O)COc1ccccc1C(=O)CCc1ccccc1 (stereo not shown) [Propafenone]		Active	
c1ccc2c(c1)Sc1ccccc1N2CC1CN2CCC1CC2 (stereo not shown) [Mequitazine]	5.0 nM		
NC(=NCc1ccc(Cl)cc1)SCCCc1cnc[nH]1 [Clobenpropit]			OPC Cell Activity ([1]; Table 2): 125 nM
CN(C)CCOC(c1ccc(Cl)cc1)c1ccccn1 (stereo not shown) [Carbinoxamine]	740 nM		
C[N+]1(C)CCCC(OC(=O)C(O)(c2ccccc2)c2ccccc2)C1 (stereo not shown) [Mepenzolate]	27 nM	Active	
Cc1ccc(/C(=C\CN2CCCC2)c2ccccn2)cc1 [Triprolidine]	15000 nM		
C[N+]1(C)CCC(OC(=O)C(O)(c2ccccc2)C2CCCC2)C1 (stereo not shown) [Glycopyrronium bromide]	0.42 nM		
CN1CCCC(n2nc(Cc3ccc(Cl)cc3)c3ccccc3c2=O)CC1 (stereo not shown) [Azelastine]	4,200 nM		
CC(CN(C)C)CN1c2ccccc2Sc2ccc(C#N)cc21 (stereo not shown) [Cyamemazine]	11 nM		
C[C@@H]1CCCN1CCCOc1ccc(-c2ccc(=O)[nH]n2)cc1 [Irdabisant]			OPC Cell Activity ([1]; Table 2): 250 nM
CC(C)[N+](C)(CCOC(=O)C1c2ccccc2Oc2ccccc21)C(C)C [Propantheline]	0.22 nM		OPC Cell Activity ([1]; Table 1): 1250 to 2950 nM
Clc1ccc(CCCOCCCN2CCCCC2)cc1 [Pitolisant (tiprolisant), Pitolisant]			OPC Cell Activity ([1]; Table 2): 14 to 100 nM; dose sparing activity with respect to the other agent ([2]; clemastine fumarate 0 to 5 μM combined with pitolisant hydrochloride 0 to 2 μM): dose sparing activity; OPC differentiation (% of MBP+ cells) ([2]; pitolisant hydrochloride alone, 0 to 2 μM): induce OPC differentiation
c1cc2c(cc1-c1noc(CC3CCN(C4CCC4)CC3)n1)OCO2 [GSK-247246]			OPC Cell Activity ([1]; Table 2): 25 to 100 nM
CC(CN1c2ccccc2Sc2cccnc21)N(C)C (stereo not shown) [Isothipendyl]	74 nM		
CC(CN(C)C)CN1c2ccccc2Sc2ccccc21 (stereo not shown) [Alimemazine]	398 nM		
NC(=O)C(c1ccccc1)(c1ccccc1)[C@@H]1CCN(CCc2ccc3c(c2)CCO3)C1 [Darifenacin]		Active	
CN(CCCN1c2ccccc2CCc2ccccc21)CC(=O)c1ccc(Cl)cc1 [Lofepramine]	67 nM		
CN(C)CCCN1c2ccccc2Sc2ccc(Cl)cc21 [Chlorpromazine]		Active	
CCCC(CCC)C(=O)O[C@H]1C[C@H]2CC[C@@H](C1)[N+]2(C)C [Octatropine methylbromide]		Active	
O=C(CCNS(=O)(=O)c1cccc2nsnc12)N1CCN(c2ccncc2)CC1 [VU0409774]	690 nM		
CCN(CC)CCOCCOC(=O)C1(c2ccccc2)CCCC1 [Pentoxyverine, carbetapentane, Pentoxyverine]	13 to 76 nM		OPC Cell Activity ([1]; Table 1): 260 nM
Cc1noc(C)c1S(=O)(=O)N1CCN(c2ccc(N3CCCC(C)(C)C3)nn2)CC1 [VU6009833]	288 nM		
CN1[C@@H]2CC[C@H]1C[C@@H](OC(=O)C(CO)c1ccccc1)C2 (stereo partly shown) [Atropine]			OPC Cell Activity ([1]; Table 1): 5700 nM
CN(C)CCC[C@@]1(c2ccc(F)cc2)OCc2cc(C#N)ccc21 [Escitalopram]		Active	
Aminobenzotropine		Active	
OCCOCCN1CCN(C(c2ccccc2)c2ccc(Cl)cc2)CC1 (stereo not shown) [Hydroxyzine]	3,800 nM	Active	
